Assay results as given in patent US9850283B2, “Macrocyclic inhibitors of the PD-1/PD-L1 and CD80(B7-1)/PD-L1 protein/protein interactions” (BRISTOL-MYERS SQUIBB COMPANY, priority 2013, dated 2017).
Positions of bridges follow the written chain, without caps; N, C: chain ends. Non-standard residues stand in square brackets, D forms with d. Residues, ends and D or L forms follow the SMILES beside them. Bta = N[C@@H](Cc1csc2ccccc12)C(=O)O; cisHyp = O=C(O)[C@@H]1C[C@H](O)CN1; Hyp = O=C(O)[C@@H]1C[C@@H](O)CN1; NMeNle = CCCC[C@H](NC)C(=O)O; NMeA = CN[C@@H](C)C(=O)O; Orn = NCCC[C@H](N)C(=O)O; Dab = NCC[C@H](N)C(=O)O; Dap = NC[C@H](N)C(=O)O

Assays:
[1] = molecular target: T1, Human PD-L1/PD-1 (Homo sapiens, UniProt Q9NZQ7); assay: HTRF PD-1-Ig/PD-L1-His binding assay (human PD-L1); settings: cluster symbol; read-out: HTRF IC50 cluster
T1 construct: made in house; host or cells: HEK293T
T1 sequence (Q9NZQ7 with tags, fused parts or gaps): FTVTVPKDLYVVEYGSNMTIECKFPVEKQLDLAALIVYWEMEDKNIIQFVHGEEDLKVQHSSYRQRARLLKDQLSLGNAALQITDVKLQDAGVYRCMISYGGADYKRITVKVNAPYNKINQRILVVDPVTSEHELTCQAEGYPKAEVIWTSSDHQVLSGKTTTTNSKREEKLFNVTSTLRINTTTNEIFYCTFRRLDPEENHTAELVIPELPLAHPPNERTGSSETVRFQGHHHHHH
Procedure, shortened: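 Ig- and His-fused extracellular PD-1/PD-L1 binding in BSA/Tween-20 dPBS. HTRF with Eu anti-Ig (1 nM final) and APC anti-His (20 nM final).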

[2] = molecular target: T2, LK35.2-hPD-L1 cells / PE-labeled PD-1-Ig (Homo sapiens, UniProt Q9NZQ7); assay: LK35.2-hPD-L1 cell binding high-content screening assay; format: cell-based; settings: cluster symbol; cell line of CBA not given (LK35.2-hPD-L1 or 293T-hPD-L1); read-out: CBA IC50 cluster
T2 construct: expressed in transfected cells; host or cells: LK35.2 mouse B cell line
T2 sequence (Q9NZQ7 19-290): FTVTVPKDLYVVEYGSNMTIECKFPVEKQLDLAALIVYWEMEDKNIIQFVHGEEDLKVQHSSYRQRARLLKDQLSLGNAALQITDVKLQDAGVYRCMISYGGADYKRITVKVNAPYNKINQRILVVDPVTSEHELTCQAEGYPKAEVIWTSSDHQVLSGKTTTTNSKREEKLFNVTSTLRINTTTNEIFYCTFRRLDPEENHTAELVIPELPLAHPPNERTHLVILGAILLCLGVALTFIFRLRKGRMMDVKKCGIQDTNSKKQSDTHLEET
Procedure, shortened: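 Binding of PE-conjugated human PD-1-Ig (1 nM final) to human PD-L1 stably expressed on a mouse B-cell line (LK35.2) was measured by high-content imaging after washes. Compound and labeled PD-1-Ig were co-incubated 1 h at 37 °C with cells in RPMI/10% FCS.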

IC50 [1] | IC50 [2] | Structure (SMILES)
6.76 to 30.3 nM | 0.158 to 4.71 nM | CCCC[C@H]1C(=O)N(C)[C@@H](CCCC)C(=O)N[C@@H](CN)C(=O)N[C@H](C(=O)NCC(N)=O)CSCC(=O)N[C@@H](Cc2ccc(O)cc2)C(=O)N(C)[C@@H](C)C(=O)N[C@@H](CC(N)=O)C(=O)N2CCC[C@H]2C(=O)N[C@@H](Cc2cnc[nH]2)C(=O)N[C@@H](CC(C)C)C(=O)N2C[C@H](O)C[C@H]2C(=O)N[C@@H](Cc2c[nH]c3ccccc23)C(=O)N[C@@H](CO)C(=O)N[C@@H](Cc2c[nH]c3ccccc23)C(=O)N1C [Example 1132]
6.76 to 30.3 nM | 0.158 to 4.71 nM | CCCC[C@H]1C(=O)N(C)[C@@H](CCCC)C(=O)N[C@@H](CCCNC(=N)N)C(=O)N[C@H](C(=O)NCC(N)=O)CSCC(=O)N[C@@H](Cc2ccc(O)cc2)C(=O)N(C)[C@@H](C)C(=O)N[C@@H](CC(N)=O)C(=O)N2CCC[C@H]2C(=O)N[C@@H](Cc2cnc[nH]2)C(=O)N[C@@H](CC(C)C)C(=O)N2C[C@H](O)C[C@H]2C(=O)N[C@@H](Cc2c[nH]c3ccccc23)C(=O)N[C@@H](CCCN)C(=O)N[C@@H](Cc2c[nH]c3ccccc23)C(=O)N1C [Example 1133] ({CH2CO}-Y[NMeA]NPHL[Hyp]W[Orn]W[NMeNle][NMeNle]RCG-NH2; thioether N-14)
6.76 to 30.3 nM | 0.158 to 4.71 nM | CCCC[C@H]1C(=O)N(C)[C@@H](CCCC)C(=O)N[C@@H](CCCNC(=N)N)C(=O)N[C@H](C(=O)NCC(N)=O)CSCC(=O)N[C@@H](Cc2ccc(O)cc2)C(=O)N(C)[C@@H](C)C(=O)N[C@@H](CC(N)=O)C(=O)N2CCC[C@H]2C(=O)N[C@@H](Cc2cnc[nH]2)C(=O)N[C@@H](CC(C)C)C(=O)N2C[C@H](O)C[C@H]2C(=O)N[C@@H](Cc2c[nH]c3ccccc23)C(=O)N[C@@H](CCN)C(=O)N[C@@H](Cc2c[nH]c3ccccc23)C(=O)N1C [Example 1134] ({CH2CO}-Y[NMeA]NPHL[Hyp]W[Dab]W[NMeNle][NMeNle]RCG-NH2; thioether N-14)
6.76 to 30.3 nM | 0.158 to 4.71 nM | CCCC[C@H]1C(=O)N(C)[C@@H](CCCC)C(=O)N[C@@H](CCCNC(=N)N)C(=O)N[C@H](C(=O)NCC(N)=O)CSCC(=O)N[C@@H](Cc2ccc(O)cc2)C(=O)N(C)[C@@H](C)C(=O)N[C@@H](CC(N)=O)C(=O)N2CCC[C@H]2C(=O)N[C@@H](Cc2cnc[nH]2)C(=O)N[C@@H](CC(C)C)C(=O)N2C[C@H](O)C[C@H]2C(=O)N[C@@H](Cc2c[nH]c3ccccc23)C(=O)N[C@@H](CN)C(=O)N[C@@H](Cc2c[nH]c3ccccc23)C(=O)N1C [Example 1135] ({CH2CO}-Y[NMeA]NPHL[Hyp]W[Dap]W[NMeNle][NMeNle]RCG-NH2; thioether N-14)
6.76 to 30.3 nM | 4.78 to 72.9 nM | CCCC[C@H]1C(=O)N(C)[C@@H](CCCC)C(=O)N[C@@H](CCCNC(=N)N)C(=O)N[C@H](C(=O)NCC(N)=O)CSCC(=O)N[C@@H](Cc2ccc(O)cc2)C(=O)N2CCC[C@H]2C(=O)N[C@@H](CC(N)=O)C(=O)N2CCC[C@H]2C(=O)N[C@@H](Cc2cnc[nH]2)C(=O)N[C@@H](CC(C)C)C(=O)N2CCC[C@H]2C(=O)N[C@@H](Cc2c[nH]c3ccccc23)C(=O)N[C@@H](CO)C(=O)N[C@@H](Cc2c[nH]c3ccccc23)C(=O)N1C [Example 1136] ({CH2CO}-YPNPHLPWSW[NMeNle][NMeNle]RCG-NH2; thioether N-14)
> 30.5 nM | > 74.3 nM | CCCC[C@H]1C(=O)N(C)[C@@H](CCCC)C(=O)N[C@@H](CCCNC(=N)N)C(=O)N[C@H](C(=O)NCC(N)=O)CSCC(=O)N[C@@H](Cc2ccc(O)cc2)C(=O)N2CCC[C@@H]2C(=O)N[C@@H](CC(N)=O)C(=O)N2CCC[C@H]2C(=O)N[C@@H](Cc2cnc[nH]2)C(=O)N[C@@H](CC(C)C)C(=O)N2CCC[C@H]2C(=O)N[C@@H](Cc2c[nH]c3ccccc23)C(=O)N[C@@H](CO)C(=O)N[C@@H](Cc2c[nH]c3ccccc23)C(=O)N1C [Example 1137] ({CH2CO}-Y[dP]NPHLPWSW[NMeNle][NMeNle]RCG-NH2; thioether N-14)
6.76 to 30.3 nM | 0.158 to 4.71 nM | CCCC[C@H]1C(=O)N(C)[C@@H](CCCC)C(=O)N[C@@H](C)C(=O)N[C@H](C(=O)NCC(N)=O)CSCC(=O)N[C@@H](Cc2ccc(O)cc2)C(=O)N(C)[C@@H](C)C(=O)N[C@@H](CC(=O)O)C(=O)N2CCC[C@H]2C(=O)N[C@@H](CN)C(=O)N[C@@H](CC(C)C)C(=O)N2C[C@H](O)C[C@H]2C(=O)N[C@@H](Cc2c[nH]c3ccccc23)C(=O)N[C@@H](CO)C(=O)N[C@@H](Cc2c[nH]c3ccccc23)C(=O)N1C [Example 1138] ({CH2CO}-Y[NMeA]DP[Dap]L[Hyp]WSW[NMeNle][NMeNle]ACG-NH2; thioether N-14)
0.385 to 6.74 nM | 0.158 to 4.71 nM | CCCC[C@H]1C(=O)N(C)[C@@H](CCCC)C(=O)N[C@@H](CCCN)C(=O)N[C@H](C(=O)NCC(N)=O)CSCC(=O)N[C@@H](Cc2ccc(O)cc2)C(=O)N(C)[C@@H](C)C(=O)N[C@@H](CC(N)=O)C(=O)N2CCC[C@H]2C(=O)N[C@@H](CN)C(=O)N[C@@H](CC(C)C)C(=O)N2C[C@H](O)C[C@H]2C(=O)N[C@@H](Cc2c[nH]c3ccccc23)C(=O)N[C@@H](CO)C(=O)N[C@@H](Cc2csc3ccccc23)C(=O)N1C [Example 1139] ({CH2CO}-Y[NMeA]NP[Dap]L[Hyp]WS[Bta][NMeNle][NMeNle][Orn]CG-NH2; thioether N-14)
0.385 to 6.74 nM | 0.158 to 4.71 nM | CCCC[C@H]1C(=O)N(C)[C@@H](CCCC)C(=O)N[C@@H](C)C(=O)N[C@H](C(=O)NCC(N)=O)CSCC(=O)N[C@@H](Cc2ccc(O)cc2)C(=O)N(C)[C@@H](C)C(=O)N[C@@H](CC(=O)O)C(=O)N2CCC[C@H]2C(=O)N[C@@H](Cc2cnc[nH]2)C(=O)N[C@@H](CCCN)C(=O)N2C[C@H](O)C[C@H]2C(=O)N[C@@H](Cc2c[nH]c3ccccc23)C(=O)N[C@@H](CO)C(=O)N[C@@H](Cc2c[nH]c3ccccc23)C(=O)N1C [Example 1140] ({CH2CO}-Y[NMeA]DPH[Orn][Hyp]WSW[NMeNle][NMeNle]ACG-NH2; thioether N-14)
0.385 to 6.74 nM | 0.158 to 4.71 nM | CCCC[C@H]1C(=O)N(C)[C@@H](CCCC)C(=O)N[C@@H](CCCNC(=N)N)C(=O)N[C@H](C(=O)NCC(=O)O)CSCC(=O)N[C@@H](Cc2ccc(O)cc2)C(=O)N(C)[C@@H](C)C(=O)N[C@@H](CC(N)=O)C(=O)N2CCC[C@H]2C(=O)N[C@@H](CN)C(=O)N[C@@H](CC(C)C)C(=O)N2C[C@@H](O)C[C@H]2C(=O)N[C@@H](Cc2c[nH]c3ccccc23)C(=O)N[C@@H](CO)C(=O)N[C@@H](Cc2csc3ccccc23)C(=O)N1C [Example 1141] ({CH2CO}-Y[NMeA]NP[Dap]L[cisHyp]WS[Bta][NMeNle][NMeNle]RCG-OH; thioether N-14)
6.76 to 30.3 nM | 4.78 to 72.9 nM | CCCC[C@H]1C(=O)N(C)[C@@H](CCCC)C(=O)N[C@@H](CCCNC(=N)N)C(=O)N[C@H](C(=O)NCC(N)=O)CSCC(=O)N[C@@H](Cc2ccc(O)cc2)C(=O)N(C)[C@@H](C)C(=O)N[C@@H](CC(N)=O)C(=O)N2CCC[C@H]2C(=O)N[C@@H](C)C(=O)N[C@@H](CC(C)C)C(=O)N2C[C@@H](O)C[C@H]2C(=O)N[C@@H](Cc2c[nH]c3ccccc23)C(=O)N[C@@H](CO)C(=O)N[C@@H](Cc2c[nH]c3ccccc23)C(=O)N1C [Example 1142] ({CH2CO}-Y[NMeA]NPAL[cisHyp]WSW[NMeNle][NMeNle]RCG-NH2; thioether N-14)
